Active and inactive are the calls of the source. The calls are words filed in the database; no cut-off is given here.
What was measured:
Rattus norvegicus [1] = assay: Neurotoxicity in rat at 30 mg/kg, po after 0.25 hrs by rotarod test; type: toxicity, organism-based; parameters: dose 30 mg/kg, route oral; settings: in vivo
Rattus norvegicus [2] = assay: Neurotoxicity in rat at 30 mg/kg, po after 0.5 hrs by rotarod test; type: toxicity, organism-based; parameters: dose 30 mg/kg, route oral; settings: in vivo
Mus musculus [3] = assay: Anticonvulsant activity against maximal electroshock-induced seizures in ip dosed mouse; type: functional
Rattus norvegicus [4] = assay: Anticonvulsant activity against maximal electroshock-induced seizures in rat at 30 mg/kg, po after 0.25 hrs; type: functional, organism-based; parameters: dose 30 mg/kg
Mus musculus [5] = assay: Neurotoxicity in mouse at 300 mg/kg, ip after 4 hrs by rotarod test; type: toxicity, organism-based; parameters: dose 300 mg/kg, route intraperitoneal; settings: in vivo
Mus musculus [6] = assay: Neurotoxicity in mouse at 100 mg/kg, ip after 4 hrs by rotarod test; type: toxicity, organism-based; parameters: dose 100 mg/kg, route intraperitoneal; settings: in vivo
Mus musculus [7] = assay: Anticonvulsant activity against scMet-induced seizures in mouse at 100 mg/kg, ip after 4 hrs; type: functional, organism-based; parameters: dose 100 mg/kg
Mus musculus [8] = assay: Anticonvulsant activity against scMet-induced seizures in mouse at 30 mg/kg, ip after 0.5 hrs; type: functional, organism-based; parameters: dose 30 mg/kg
Mus musculus [9] = assay: Anticonvulsant activity against maximal electroshock-induced seizures in mouse at 300 mg/kg, ip after 0.5 hrs; type: functional, organism-based; parameters: dose 300 mg/kg
Mus musculus [10] = assay: Anticonvulsant activity against scMet-induced seizures in mouse at 100 mg/kg, ip after 0.5 hrs; type: functional, organism-based; parameters: dose 100 mg/kg
Mus musculus [11] = species: Mus musculus; assay: Protective index, ratio of TD50 for mouse by rotarod test to ED50 for mouse by scMET test; type: functional
Rattus norvegicus [12] = assay: Neurotoxicity in rat at 30 mg/kg, po after 1 hr by rotarod test; type: toxicity, organism-based; parameters: dose 30 mg/kg, route oral; settings: in vivo
Mus musculus [13] = assay: Anticonvulsant activity against maximal electroshock-induced seizures in mouse at 300 mg/kg, ip after 4 hrs; type: functional, organism-based; parameters: dose 300 mg/kg
[14] = Neurotoxicity in ip dosed mouse by rotarod test; type: toxicity, organism-based; settings: in vivo
Mus musculus [15] = species: Mus musculus; assay: Protective index, ratio of TD50 for mouse by rotarod test to ED50 for mouse by MES test; type: functional
Mus musculus [16] = assay: Neurotoxicity in mouse at 30 mg/kg, ip after 4 hrs by rotarod test; type: toxicity, organism-based; parameters: dose 30 mg/kg, route intraperitoneal; settings: in vivo
Rattus norvegicus [17] = assay: Neurotoxicity in rat at 30 mg/kg, po after 4 hrs by rotarod test; type: toxicity, organism-based; parameters: dose 30 mg/kg, route oral; settings: in vivo
Mus musculus [18] = assay: Neurotoxicity in mouse at 30 mg/kg, ip after 0.5 hrs by rotarod test; type: toxicity, organism-based; parameters: dose 30 mg/kg, route intraperitoneal; settings: in vivo
Mus musculus [19] = assay: Anticonvulsant activity against scMet-induced seizures in mouse at 300 mg/kg, ip after 0.5 hrs; type: functional, organism-based; parameters: dose 300 mg/kg
Mus musculus [20] = assay: Anticonvulsant activity against maximal electroshock-induced seizures in mouse at 100 mg/kg, ip after 4 hrs; type: functional, organism-based; parameters: dose 100 mg/kg
Mus musculus [21] = assay: Anticonvulsant activity against scMet-induced seizures in mouse at 30 mg/kg, ip after 4 hrs; type: functional, organism-based; parameters: dose 30 mg/kg
Mus musculus [22] = assay: Anticonvulsant activity against maximal electroshock-induced seizures in mouse at 30 mg/kg, ip after 0.5 hrs; type: functional, organism-based; parameters: dose 30 mg/kg
Mus musculus [23] = assay: Anticonvulsant activity against scMet-induced seizures in ip dosed mouse; type: functional
Mus musculus [24] = assay: Anticonvulsant activity against scMet-induced seizures in mouse at 300 mg/kg, ip after 4 hrs; type: functional, organism-based; parameters: dose 300 mg/kg
Rattus norvegicus [25] = assay: Anticonvulsant activity against maximal electroshock-induced seizures in rat at 30 mg/kg, po after 0.5 hrs; type: functional, organism-based; parameters: dose 30 mg/kg
Rattus norvegicus [26] = assay: Anticonvulsant activity against maximal electroshock-induced seizures in rat at 30 mg/kg, po after 1 hr; type: functional, organism-based; parameters: dose 30 mg/kg
Mus musculus [27] = assay: Anticonvulsant activity against maximal electroshock-induced seizures in mouse at 30 mg/kg, ip after 4 hrs; type: functional, organism-based; parameters: dose 30 mg/kg
Rattus norvegicus [28] = assay: Neurotoxicity in rat at 30 mg/kg, po after 2 hrs by rotarod test; type: toxicity, organism-based; parameters: dose 30 mg/kg, route oral; settings: in vivo
[29] = Displacement of [3H]nitrendipine from voltage-dependent calcium channel in rat brain cortex by scintillation counting; type: tissue-based
Mus musculus [30] = assay: Neurotoxicity in mouse at 100 mg/kg, ip after 1 hr by rotarod test; type: toxicity, organism-based; parameters: dose 100 mg/kg, route intraperitoneal; settings: in vivo
Mus musculus [31] = assay: Neurotoxicity in mouse at 30 mg/kg, ip after 1 hr by rotarod test; type: toxicity, organism-based; parameters: dose 30 mg/kg, route intraperitoneal; settings: in vivo
Rattus norvegicus [32] = assay: Anticonvulsant activity against maximal electroshock-induced seizures in rat at 30 mg/kg, po after 4 hrs; type: functional, organism-based; parameters: dose 30 mg/kg
Mus musculus [33] = assay: Anticonvulsant activity against maximal electroshock-induced seizures in mouse at 100 mg/kg, ip after 0.5 hrs; type: functional, organism-based; parameters: dose 100 mg/kg
Rattus norvegicus [34] = assay: Anticonvulsant activity against maximal electroshock-induced seizures in rat at 30 mg/kg, po after 2 hrs; type: functional, organism-based; parameters: dose 30 mg/kg
Mus musculus [35] = assay: Neurotoxicity in mouse at 300 mg/kg, ip after 0.5 hrs by rotarod test; type: toxicity, organism-based; parameters: dose 300 mg/kg, route intraperitoneal; settings: in vivo

SMILES	Neurotoxicity (Rattus norvegicus [1])	Neurotoxicity (Rattus norvegicus [2])	ED50 (Mus musculus [3]) [mg/kg]	Neurotoxicity (Mus musculus [6])	Activity (Mus musculus [7])	Activity (Mus musculus [8])	Activity (Mus musculus [9])	Activity (Mus musculus [10])	Neurotoxicity (Rattus norvegicus [12])	Activity (Mus musculus [13])	PI (Mus musculus [15])	Neurotoxicity (Mus musculus [16])	Neurotoxicity (Rattus norvegicus [17])	Neurotoxicity (Mus musculus [18])	Activity (Mus musculus [19])	Activity (Mus musculus [20])	Activity (Mus musculus [21])	Activity (Mus musculus [22])	Activity (Mus musculus [24])	Activity (Rattus norvegicus [25])	other results
C[C@H](CO)NCc1ccc2oc3cc(Cl)ccc3c(=O)c2c1	Not Active	Not Active	77.4	Not Active	inactive	inactive	Active	inactive	Not Active	Active	6.23	Not Active	Not Active	Not Active	inactive	inactive	inactive	inactive	inactive	inactive	Activity (Rattus norvegicus [4]): inactive; Neurotoxicity (Mus musculus [5]): Not Active; PI (Mus musculus [11]): <0.96; TD50 [14]: 483 mg/kg; ED50 (Mus musculus [23]): > 500 mg/kg; Activity (Rattus norvegicus [26]): inactive; Activity (Mus musculus [27]): inactive; Neurotoxicity (Rattus norvegicus [28]): Not Active
O=C1NC(=O)C(c2ccccc2)(c2ccccc2)N1 [PHENYTOIN]			6.48								6.6										PI (Mus musculus [11]): <0.9; ED50 (Mus musculus [23]): > 50 mg/kg
CC[C@@H](CO)NCCOc1c(C)cccc1C			7.57								4.55										
COC(=O)C1=C(C)NC(C)=C(C(=O)OC)C1c1ccccc1[N+](=O)[O-] [NIFEDIPINE]																					EC50 [29]: 1 nM
Cl.O=c1c2ccc(Cl)cc2oc2ccc(CNCCCO)cc12	Not Active	Not Active		Not Active	inactive	inactive	Active	inactive	Not Active	inactive		Not Active	Not Active	Not Active	inactive	inactive	inactive	inactive	inactive	inactive	Neurotoxicity (Mus musculus [30]): Not Active; Neurotoxicity (Mus musculus [31]): Not Active; Activity (Rattus norvegicus [4]): inactive; Neurotoxicity (Mus musculus [5]): Neurotoxic; Activity (Rattus norvegicus [32]): inactive; Activity (Mus musculus [33]): inactive; Activity (Rattus norvegicus [34]): inactive; Neurotoxicity (Mus musculus [35]): Neurotoxic; Activity (Rattus norvegicus [26]): inactive; Activity (Mus musculus [27]): inactive; Neurotoxicity (Rattus norvegicus [28]): Not Active
CC(CCl)NCc1ccc2oc3cc(Cl)ccc3c(=O)c2c1.Cl (racemic)	Not Active	Not Active		Not Active	inactive	inactive	inactive	inactive	Not Active	inactive		Not Active	Not Active	Not Active	inactive	inactive	inactive	inactive	inactive	inactive	Activity (Mus musculus [33]): inactive; Activity (Rattus norvegicus [34]): inactive; Activity (Rattus norvegicus [26]): inactive; Activity (Mus musculus [27]): inactive; Neurotoxicity (Rattus norvegicus [28]): Not Active
